Experimental data reported in publication PMC7854658, “Structural basis for ligand recognition of the neuropeptide Y Y2 receptor” (Nature Communications, 2021).
Positions count from the first letter of the chain named. Values joined by “and” are separate entries in the source; they are usually repeats but may differ in a detail not shown here. Equal entries are not always repeated.

How the values were obtained:
[1] = set-up: method as in Brothers, S. P. et al., Mol. Pharmacol. 77:46–57, 2010; conditions: ref Brothers, S. P. et al., Mol. Pharmacol. 77:46–57, 2010; cited from earlier work
Y2R mutant W116^ECL1A = biological target: T1, Y2R mutant W116^ECL1A (Homo sapiens, UniProt P49146, W116A); experiment: NPY-induced IP accumulation (IP-One), mutant; type: cell-based; conditions: 1 μM antagonist, source data Fig. 3
T1 construct: expressed in transfected cells; host or cells: HEK293

Y2R mutant Y228^5.47A = biological target: T2, Y2R mutant Y228^5.47A (Homo sapiens, UniProt P49146, Y228A); experiment: NPY-induced IP accumulation (IP-One), mutant; type: cell-based; conditions: 1 μM antagonist, source data Fig. 3
T2 construct: expressed in transfected cells; host or cells: HEK293

Y2R mutant H285^6.52T = biological target: T3, Y2R mutant H285^6.52T (Homo sapiens, UniProt P49146, H285T); experiment: NPY-induced IP accumulation (IP-One), mutant; type: cell-based
T3 construct: expressed in transfected cells; host or cells: HEK293
T3 sequence (P49146 1-381 H285T): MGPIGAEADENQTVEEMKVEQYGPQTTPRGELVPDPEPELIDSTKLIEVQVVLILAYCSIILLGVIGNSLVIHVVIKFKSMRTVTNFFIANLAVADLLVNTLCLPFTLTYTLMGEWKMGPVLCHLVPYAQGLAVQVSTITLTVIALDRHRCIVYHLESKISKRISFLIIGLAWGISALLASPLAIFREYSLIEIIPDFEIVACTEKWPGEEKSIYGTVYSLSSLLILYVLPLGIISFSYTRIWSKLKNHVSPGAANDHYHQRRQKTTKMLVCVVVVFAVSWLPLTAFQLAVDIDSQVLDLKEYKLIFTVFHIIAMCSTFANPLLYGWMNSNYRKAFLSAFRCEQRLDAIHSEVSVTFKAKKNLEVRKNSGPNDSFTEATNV

Y2R mutant V134^3.36A = biological target: T4, Y2R mutant V134^3.36A (Homo sapiens, UniProt P49146, V134A); experiment: NPY-induced IP accumulation (IP-One), mutant; type: cell-based
T4 construct: expressed in transfected cells; host or cells: HEK293
T4 sequence (P49146 1-381 V134A): T3 sequence (P49146 1-381 H285T) with V134A, T285H

Y2R mutant Y219^5.38A = biological target: T5, Y2R mutant Y219^5.38A (Homo sapiens, UniProt P49146, Y219A); experiment: NPY-induced IP accumulation (IP-One), mutant; type: cell-based; conditions: 1 μM antagonist, source data Fig. 3
T5 construct: expressed in transfected cells; host or cells: HEK293

Y2R mutant W281^6.48T = biological target: T6, Y2R mutant W281^6.48T (Homo sapiens, UniProt P49146, W281T); experiment: NPY-induced IP accumulation (IP-One), mutant; type: cell-based
T6 construct: expressed in transfected cells; host or cells: HEK293
T6 sequence (P49146 1-381 W281T): T3 sequence (P49146 1-381 H285T) with W281T, T285H

Y2R mutant F307^7.35E = biological target: T7, Y2R mutant F307^7.35E (Homo sapiens, UniProt P49146, F307E); experiment: NPY-induced IP accumulation (IP-One), mutant; type: cell-based; conditions: 1 μM antagonist, source data Fig. 3
T7 construct: expressed in transfected cells; host or cells: HEK293

Y2R mutant L183^4.60A = biological target: T8, Y2R mutant L183^4.60A (Homo sapiens, UniProt P49146, L183A); experiment: NPY-induced IP accumulation (IP-One), mutant; type: cell-based; conditions: 1 μM antagonist, source data Fig. 3
T8 construct: expressed in transfected cells; host or cells: HEK293

[2] = 1 μM antagonist, source data Fig. 3
[3] = EC50 ratio (WT)/EC50 ratio (mutant)
[4] = EC50(NPY + 1 μM antagonist)/EC50(NPY)

T8 sequence (P49146 whole entry L183A): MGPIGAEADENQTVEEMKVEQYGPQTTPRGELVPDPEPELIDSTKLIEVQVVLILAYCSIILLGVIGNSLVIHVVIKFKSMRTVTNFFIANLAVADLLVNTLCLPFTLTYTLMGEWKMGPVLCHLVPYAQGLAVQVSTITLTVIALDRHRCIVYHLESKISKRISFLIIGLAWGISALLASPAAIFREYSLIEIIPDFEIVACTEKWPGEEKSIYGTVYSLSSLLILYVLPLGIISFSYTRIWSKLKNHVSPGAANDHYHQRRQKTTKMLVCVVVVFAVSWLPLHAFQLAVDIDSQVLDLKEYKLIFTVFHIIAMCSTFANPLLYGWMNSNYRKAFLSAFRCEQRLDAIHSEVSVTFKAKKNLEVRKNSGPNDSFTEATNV
T2 sequence (P49146 whole entry Y228A): as the sequence (P49146 whole entry L183A) above, with A183L, Y228A counted along it
T5 sequence (P49146 whole entry Y219A): as the sequence (P49146 whole entry L183A) above, with A183L, Y219A counted along it
T7 sequence (P49146 whole entry F307E): as the sequence (P49146 whole entry L183A) above, with A183L, F307E counted along it
T1 sequence (P49146 whole entry W116A): as the sequence (P49146 whole entry L183A) above, with W116A, A183L counted along it

Average EC50 ratio (Y2R mutant W116^ECL1A): 38.2 | EC50 ratio (individual experiments) (Y2R mutant W116^ECL1A): 21.7 and 54.7 | Average EC50 ratio (Y2R mutant Y228^5.47A): 18.8 | EC50 ratio (individual experiments) (Y2R mutant Y228^5.47A): 10.5 and 27.0 | Average EC50 ratio (Y2R mutant H285^6.52T; [2]): 2.7 | EC50 ratio (individual experiments) (Y2R mutant H285^6.52T; [2]): 3.5 and 1.9 | Ratio change (fold) (Y2R mutant H285^6.52T; [3]): 45 fold and 84 fold | Average EC50 ratio (Y2R mutant V134^3.36A; [2]): 81.8 | EC50 ratio (individual experiments) (Y2R mutant V134^3.36A; [2]): 76.2 and 87.4 | EC50 ratio (Y2R mutant V134^3.36A; [4]): 76 and 87 | Ratio change (fold) (Y2R mutant V134^3.36A; [3]): 2 fold and 1.8 fold | Average EC50 ratio (Y2R mutant Y219^5.38A): 97.9 | EC50 ratio (individual experiments) (Y2R mutant Y219^5.38A): 48.6 and 147.2 | Average EC50 ratio (Y2R mutant W281^6.48T; [2]): 2.6 | EC50 ratio (individual experiments) (Y2R mutant W281^6.48T; [2]): 3.3 and 2.0 | EC50 ratio (Y2R mutant W281^6.48T; [4]): 3 and 2 | Ratio change (fold) (Y2R mutant W281^6.48T; [3]): 48 fold and 80 fold | Average EC50 ratio (Y2R mutant F307^7.35E): 232.3 | EC50 ratio (individual experiments) (Y2R mutant F307^7.35E): 75.3 and 389.3 | Average EC50 ratio (Y2R mutant L183^4.60A): 10.3 | EC50 ratio (individual experiments) (Y2R mutant L183^4.60A): 6.3 and 14.3
Compound: N=C(N)NCCC[C@H](NC(=O)CC1(CC(=O)N2CCN(C3c4ccccc4NC(=O)c4ccccc43)CC2)CCCC1)C(=O)NCCn1c(=O)n(-c2ccccc2)n(-c2ccccc2)c1=O (stereo partly shown) [BIIE0246]
Blood-brain-barrier permeability [1]: poor
